According to patent US20020107219A1, “Adenoviral vector containing cyclooxygenase-2 promoter and uses thereof” (priority 2000, published 2002):

Assay type: in vivo, C57BL/6 mice
Description: To investigate the toxicity induced by the HSV-tk/GCV system, each group of ten C57BL/6 mice received a tail vein injection of AdCMV TK (10^9 pfu), Adcox2LTK (10^9 pfu) or phosphate-buffered saline on day 0. […] The mice were sacrificed on day 6 and the blood samples were collected to analyze total bilirubin, alanine aminotransferase (ALT), aspartate aminotransferase (AST) an d lactate dehydrogenase (LDH) at a veterinary laboratory (ANTECH Diagnostics, Farmingdale, N.Y.). For histopathological analysis, the major organs were fixed with 10% buffered formaldehyde, paraffin-embedded and cut in to 4 μm section, followed by deparaffinization and staining with hematoxylin and eosin.

Nc1nc(O)c2ncn(COC(CO)CO)c2n1 [GCV, ganciclovir]
serum samples (total bilirubin, ALT, AST, LDH) (only GCV, without virus): did not show abnormality | liver histology (H and E) (without virus administration): appeared almost normal
